The record followed here is paper PMC6282106, “Commercial drugs containing flavonoids are active in mice with malaria and in vitro against chloroquine-resistant Plasmodium falciparum” (Memórias do Instituto Oswaldo Cruz, 2018).

Converted amounts (≈) assume the structure as drawn. Read-outs that look alike come from different tables or passages of the source. Where only a bound is given, the exact number is not on record here.

Data set [1] has as its system Plasmodium falciparum chloroquine-resistant clone (W2). Nature of the data set: microbe, parasite or virus in culture. It is filed as cell-based. Particulars: for IC50: Plasmodium falciparum, W2, P. falciparum W2, anti-HRPII test, read-out: IC50 (dose inhibiting 50% of parasite growth), mean ± SD; for In vitro activity against P. falciparum, in words: P. falciparum W2.

The subject of another data set is Plasmodium berghei NK65. Put plainly: Antimalarial suppressive test in mice infected with P. berghei. Conditions: for Activity in P. berghei-infected mice, in words: 50 mg/kg by oral route, Table IV experiment.
Where [2] appears, read: BGM cells, 24 h, MTT, mean of 3-5 experiments.
[3] abbreviates: Table V experiment, chloroquine 15 mg/kg.
Where [4] appears, read: Table VI, chloroquine 1.25 mg/kg.
The mark [5] stands for this setting: Table VI, chloroquine 2.5 mg/kg.
Setting [6] is: chloroquine at subcurative doses, dose not given.
Where [7] appears, read: P. falciparum W2, anti-HRPII test, mean of 3-5 experiments.
Setting [8] is: Table IV, 50 mg/kg oral, daily for three days.
Setting [9] is: Table IV, 50 mg/kg oral, daily for three days, vs untreated controls.

With `O=C1O[C@H]([C@@H](O)CO)C(O)=C1O` [Ascorbic acid], the half-inhibitory concentration (IC50) – broadly, the point on the concentration scale where inhibition reaches its midpoint – in data set [1] (mean of 3-5 experiments) was no less than 50 µg/mL.

Regarding `CC1=C(/C=C/C(C)=C/C=C/C(C)=C/C=C/C=C(C)/C=C/C=C(C)/C=C/C2=C(C)CCCC2(C)C)C(C)(C)CCC1` [Beta carotene], in the data set with BGM cell line (setting [2]), the “MDL50 (minimum lethal dose for 50% of cells), mean ± SD” value is no less than 1000 µg/mL. In addition, in data set [1], the “Selectivity index (SI) MDL50 / IC50” value is no less than 71.4 and the “In vitro activity against P. falciparum, in words” value is recorded as “reduced the P. falciparum parasite growth”. In data set [1] (mean of 3-5 experiments), the concentration for half-maximal inhibition (IC50) was 14 ± 3.1 µg/mL (≈ 26.1 µM).

For `CCN(CC)CCCC(C)Nc1ccnc2cc(Cl)ccc12` (stereo not drawn) [Chloroquine], in the data set with Plasmodium berghei NK65 (Table IV, chloroquine 20 mg/kg), the “% Reduction of parasitaemia, 5th day” value is 100%; the “% Reduction of parasitaemia, 7th day” value was 100%; the “Survival (average ± SD)” value was found to be 24 ± 5; the “mean parasitaemia ± SD, 5th day” value is 0.0 ± 0.0. Moreover, the “mean parasitaemia ± SD, 7th day” value in the data set with Plasmodium berghei NK65 (Table IV, chloroquine 20 mg/kg) was determined as 0.0 ± 0.0. Further, in the data set on Plasmodium berghei NK65 (setting [3]), the “% Reduction of parasitaemia, 7th day” value is reported as 65%; the “Survival (average ± SD)” value was 24 ± 5; the “mean parasitaemia ± SD, 5th day” value is 0.0 ± 0.0; the “mean parasitaemia ± SD, 7th day” value came out at 2.9 ± 1.1. Further, the “% Reduction of parasitaemia, 5th day” value in the data set on Plasmodium berghei NK65 (Table V experiment, chloroquine 15 mg/kg, sub-curative) is reported as 100%. Further, in the data set with Plasmodium berghei NK65 (setting [4]), the “% Reduction of parasitaemia, 5th day” value was 93%; the “% Reduction of parasitaemia, 7th day” value was 49%; the “% Reduction of parasitaemia, 9th day” value is 56%; the “Survival (average ± SD)” value was 19 ± 4. Further, in the data set with Plasmodium berghei NK65 (setting [4]), the “mean parasitaemia ± SD, 5th day” value worked out at 0.1 ± 0.03%; the “mean parasitaemia ± SD, 7th day” value is listed as 7.6 ± 3.3%; the “mean parasitaemia ± SD, 9th day” value is listed as 5.1 ± 0.1%. Moreover, in the data set on Plasmodium berghei NK65 (setting [5]), the “% Reduction of parasitaemia, 5th day” value was determined as 95%; the “% Reduction of parasitaemia, 7th day” value amounted to 79%; the “% Reduction of parasitaemia, 9th day” value stood at 29%; the “Survival (average ± SD)” value was 20 ± 9. Moreover, in the data set with Plasmodium berghei NK65 (setting [5]), the “mean parasitaemia ± SD, 5th day” value was determined as 0.01 ± 0.1%; the “mean parasitaemia ± SD, 7th day” value is given as 3.1 ± 5.3%; the “mean parasitaemia ± SD, 9th day” value came to 8.4 ± 4.5%. For the same compound, in the data set with Plasmodium berghei NK65 (Table VI, chloroquine 5 mg/kg), the “% Reduction of parasitaemia, 5th day” value stood at 94%; the “% Reduction of parasitaemia, 7th day” value is on record as 69%; the “% Reduction of parasitaemia, 9th day” value is 57%; the “Survival (average ± SD)” value was found to be 24 ± 4. Further, in the data set with Plasmodium berghei NK65 (Table VI, chloroquine 5 mg/kg), the “mean parasitaemia ± SD, 5th day” value is listed as 0.0 ± 0.1%; the “mean parasitaemia ± SD, 7th day” value is on record as 4.7 ± 4.0%; the “mean parasitaemia ± SD, 9th day” value was found to be 5.1 ± 3.1%. Besides, in the data set on Plasmodium berghei NK65 (setting [6]), the “Reduction of parasitaemia, day 5” value worked out at 95% and the “Reduction of parasitaemia, day 7” value came to 79%. Further, the IC50 in data set [1] (mean of 3-5 experiments) came to 0.175 ± 0.02 µg/mL (≈ 0.547 µM).

In the case of `O=c1c(-c2ccc(O)cc2)coc2cc(O)cc(O)c12` [Genistein], in the data set with BGM cell line (setting [2]), the “MDL50 (minimum lethal dose for 50% of cells), mean ± SD” value is no less than 1000 µg/mL. The “Selectivity index (SI) MDL50 / IC50” value in data set [1] (BGM MDL50 / P. falciparum W2 IC50, toxicity considered at SI < 10) is given as “Inactive”. Also, in data set [1], the “In vitro activity against P. falciparum, in words” value was “no activity”. Besides, the “IC50 (dose inhibiting 50% of parasite growth), mean ± SD” value in data set [1] (setting [7]) worked out at 28.8 ± 18.0 µg/mL. Also, the half-inhibitory concentration (IC50) in data set [1] (mean of 3-5 experiments) is greater than 25 µg/mL.

As for `COc1ccc([C@@H]2CC(=O)c3c(O)cc(O[C@@H]4O[C@H](CO[C@@H]5O[C@@H](C)[C@H](O)[C@@H](O)[C@H]5O)[C@@H](O)[C@H](O)[C@H]4O)cc3O2)cc1O` [Hesperidin], the “MDL50 (minimum lethal dose for 50% of cells), mean ± SD” value in the data set on BGM cell line (setting [2]) is no less than 1000 µg/mL. The “Activity in P. berghei-infected mice, in words” value in the data set on Plasmodium berghei NK65 was “slightly active”. Besides, in the data set with Plasmodium berghei NK65 (setting [8]), the “Survival (average ± SD)” value is given as 20 ± 3; the “mean parasitaemia ± SD, 5th day” value was determined as 5.2 ± 0.8; the “mean parasitaemia ± SD, 7th day” value is listed as 9.1 ± 1.3. Besides, in the data set on Plasmodium berghei NK65 (setting [9]), the “% Reduction of parasitaemia, 5th day” value is given as 47% and the “% Reduction of parasitaemia, 7th day” value amounted to 38%. For the same compound, the “In vitro activity against P. falciparum, in words” value in data set [1] is “no activity”. Also, in data set [1] (setting [7]), the “IC50 (dose inhibiting 50% of parasite growth), mean ± SD” value is no less than 50 µg/mL. The “IC50 (dose inhibiting 50% of parasite growth), mean ± SD” value in data set [1] (P. falciparum W2, anti-HRPII test, mean of 3-5 experiments, listed as hesperidin) was greater than 25 µg/mL.

Consider `N[C@@H](CCC(=O)N[C@@H](CS)C(=O)NCC(=O)O)C(=O)O` [L-Glutathione], for which, in the data set on BGM cell line, the “MDL50 (minimum lethal dose for 50% of cells), mean ± SD” value is no less than 1000 µg/mL. Besides, the “IC50 (dose inhibiting 50% of parasite growth), mean ± SD” value in data set [1] was no less than 50 µg/mL.

`CC(=O)N[C@@H](CS)C(=O)O` [N-Acetylcysteine]: the “MDL50 (minimum lethal dose for 50% of cells), mean ± SD” value in the data set with BGM cell line is no less than 1000 µg/mL. Moreover, the “IC50 (dose inhibiting 50% of parasite growth), mean ± SD” value in data set [1] (setting [7]) was no less than 50 µg/mL.

For the compound `O=c1c(O)c(-c2ccc(O)c(O)c2)oc2cc(O)cc(O)c12` [Quercetin], the “MDL50 (minimum lethal dose for 50% of cells), mean ± SD” value in the data set with BGM cell line (setting [2]) is no less than 1000 µg/mL. Besides, the “Activity in P. berghei-infected mice, in words” value with Plasmodium berghei NK65 is “best standard flavonoid”. In the data set with Plasmodium berghei NK65 (setting [8]), the “Survival (average ± SD)” value was 22 ± 6; the “mean parasitaemia ± SD, 5th day” value is reported as 4.7 ± 4.0; the “mean parasitaemia ± SD, 7th day” value is 8.3 ± 5.1. Also, in the data set on Plasmodium berghei NK65 (setting [9]), the “% Reduction of parasitaemia, 7th day” value is listed as 44%. Also, the “% Reduction of parasitaemia, 5th day” value in the data set on Plasmodium berghei NK65 (Table IV, 50 mg/kg oral, daily for three days, vs untreated controls, 50 mg/kg) is recorded as 52%. In data set [1], the “Selectivity index (SI) MDL50 / IC50” value is listed as no less than 76.9 and the “In vitro activity against P. falciparum, in words” value is given as “most active flavonoid”. The IC50 in data set [1] (mean of 3-5 experiments) came to 13 ± 8.4 µg/mL (≈ 43 µM).

Take `Cc1cc2nc3c(=O)[nH]c(=O)nc-3n(C[C@H](O)[C@H](O)[C@H](O)CO)c2cc1C` [Riboflavin]: in the data set on BGM cell line (setting [2]), the “MDL50 (minimum lethal dose for 50% of cells), mean ± SD” value is no less than 1000 µg/mL. Moreover, the “In vitro activity against P. falciparum, in words” value in data set [1] was “reduced the P. falciparum parasite growth”. In addition, the half-inhibitory concentration (IC50) in data set [1] (mean of 3-5 experiments) was determined as 8.1 ± 4 µg/mL (≈ 21.5 µM).

`[Se]` [Selenium]: the “IC50 (dose inhibiting 50% of parasite growth), mean ± SD” value in data set [1] (setting [7]) was no less than 50 µg/mL.

Consider `CC(=O)Oc1c(C)c(C)c2c(c1C)CCC(C)(CCC[C@H](C)CCC[C@H](C)CCCC(C)C)O2` (stereo partly drawn) [Tocopherol acetate], for which, in the data set with BGM cell line (setting [2]), the “MDL50 (minimum lethal dose for 50% of cells), mean ± SD” value is no less than 1000 µg/mL. Besides, in data set [1], the “Selectivity index (SI) MDL50 / IC50” value is “Inactive”. In addition, the IC50 in data set [1] (mean of 3-5 experiments) is no less than 50 µg/mL.

Take `[O]=[Zn]` [Zinc oxide]: in the data set on BGM cell line (setting [2]), the “MDL50 (minimum lethal dose for 50% of cells), mean ± SD” value was no less than 1000 µg/mL. Further, the “In vitro activity against P. falciparum, in words” value in data set [1] is given as “reduced the P. falciparum parasite growth”. In addition, in data set [1] (setting [7]), the “IC50 (dose inhibiting 50% of parasite growth), mean ± SD” value was 2.7 ± 1.4 µg/mL.
